Assay results reported in ChEMBL document CHEMBL5316353, “Antitarget, Anti-SARS-CoV-2 Leads, Drugs, and the Drug Discovery-Genetics Alliance Perspective” (J Med Chem, 2023).
Square brackets hold non-standard residues; d marks the D form. Peptide text beside a SMILES is read from it. βAla = NCCC(=O)O

Key:
[1] = system: SARS-CoV-2; assay: microbe, parasite or virus in culture; conditions: Severe acute respiratory syndrome coronavirus 2
[2] = Binding affinity to HCoV-NL63 MPro assessed as inhibition constant; parameters: species or system Human coronavirus NL63
[3] = system: Human coronavirus 229E; assay: microbe, parasite or virus in culture; conditions: MRC5
[4] = Inhibition of HCoV-229E MPro; parameters: species or system Human coronavirus 229E
[5] = molecular target: Replicase polyprotein 1ab (Severe acute respiratory syndrome-related coronavirus, UniProt P0C6X7); assay: Binding affinity to SARS-CoV-1 MPro assessed as inhibition constant
[6] = system: SARS-CoV-2; assay type: functional, organism-based; conditions: Severe acute respiratory syndrome coronavirus 2, HPAEpiC
[7] = system: SARS-CoV-2; assay type: functional, organism-based; conditions: Severe acute respiratory syndrome coronavirus 2, Huh-7
[8] = molecular target: Procathepsin L (Homo sapiens, UniProt P07711); assay: Inhibition of recombinant cathepsin L (unknown origin)
[9] = system: Middle East respiratory syndrome-related coronavirus; assay: Antiviral activity against MERS-CoV infected in human Huh-7 cells assessed as reduction of viral growth; assay type: functional, organism-based
[10] = system: SARS-CoV-2; assay: microbe, parasite or virus in culture; conditions: Severe acute respiratory syndrome coronavirus 2; remark: listed apart in the source
[11] = system: Middle East respiratory syndrome-related coronavirus; assay: Antiviral activity against MERS-CoV assessed as inhibition of viral growth by cell-cell fusion assay; assay type: functional, organism-based
[12] = system: Middle East respiratory syndrome-related coronavirus; assay type: functional, organism-based, Vero E6; conditions: Vero C1008

Chain of Procathepsin L (P07711 whole entry): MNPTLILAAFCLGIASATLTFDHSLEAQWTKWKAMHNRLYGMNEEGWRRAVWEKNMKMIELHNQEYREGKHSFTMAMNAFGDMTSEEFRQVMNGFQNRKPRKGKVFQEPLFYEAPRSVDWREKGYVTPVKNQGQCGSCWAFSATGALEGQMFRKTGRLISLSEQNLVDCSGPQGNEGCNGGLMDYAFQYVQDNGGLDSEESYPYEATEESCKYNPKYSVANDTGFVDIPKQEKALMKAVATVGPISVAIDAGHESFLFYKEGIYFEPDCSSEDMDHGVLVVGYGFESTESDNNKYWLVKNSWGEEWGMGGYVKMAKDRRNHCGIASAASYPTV

CN(C)C(=O)COC(=O)Cc1ccc(OC(=O)c2ccc(NC(=N)N)cc2)cc1 [CAMOSTAT]
EC50 [1]: 700 nM

Cc1cc(C(=O)N[C@@H](C)C(=O)N[C@H](C(=O)N[C@@H](CC(C)C)C(=O)N[C@H](/C=C/C(=O)OCc2ccccc2)C[C@@H]2CCNC2=O)C(C)C)no1
Ki [2]: 11300 nM
IC50 [3]: 140 nM

COc1cccc2[nH]c(C(=O)N[C@@H](CC(C)C)C(=O)N[C@@H](C[C@@H]3CCNC3=O)C(=O)CO)cc12 [PF-00835231]
IC50 [4]: 4 nM
Ki [5]: 4.94 nM

CC1(C)[C@@H]2[C@@H](C(=O)N[C@H](C=O)C[C@@H]3CCNC3=O)N(C(=O)COc3ccc(OC(F)(F)F)cc3)C[C@@H]21
EC50 [6]: 1.2 nM
EC50 [7]: 35.3 nM

CCOC(=O)[C@H]1OC1C(=O)N[C@@H](CC(C)C)C(=O)NCCC(C)C (stereo not given in full)
IC50 [8]: 180 nM

CC[C@H](C)[C@H](N)C(=O)N[C@@H](CCC(=O)O)C(=O)N[C@@H](CCC(=O)O)C(=O)N[C@H](C(=O)N[C@@H](CO)C(=O)N[C@@H](CCCCN)C(=O)N[C@@H](CCCCN)C(=O)N[C@H](C(=O)N[C@@H](CCC(=O)O)C(=O)N[C@@H](CCC(=O)O)C(=O)N[C@H](C(=O)N[C@@H](CO)C(=O)N[C@@H](CCCCN)C(=O)N[C@@H](CCCCN)C(=O)N[C@H](C(=O)N[C@@H](CCC(=O)O)C(=O)N[C@@H](CCC(=O)O)C(=O)N[C@H](C(=O)N[C@@H](CO)C(=O)N[C@@H](CCCCN)C(=O)N[C@@H](CCCCN)C(=O)N[C@H](C(=O)N[C@@H](CCC(=O)O)C(=O)N[C@@H](CCC(=O)O)C(=O)N[C@H](C(=O)N[C@@H](CO)C(=O)N[C@@H](CCCCN)C(=O)N[C@@H](CCCCN)C(=O)N[C@H](C(=O)N[C@@H](CCC(=O)O)C(=O)N[C@@H](CCC(=O)O)C(=O)N[C@H](C(=O)N[C@@H](CO)C(=O)N[C@@H](CCCCN)C(=O)N[C@@H](CCCCN)C(=O)NCCC(=O)N[C@@H](CCCCN)C(=O)O)[C@@H](C)CC)[C@@H](C)CC)[C@@H](C)CC)[C@@H](C)CC)[C@@H](C)CC)[C@@H](C)CC)[C@@H](C)CC)[C@@H](C)CC)[C@@H](C)CC (H-IEEISKKIEEISKKIEEISKKIEEISKKIEEISKK[βAla]K-OH)
EC50 [9]: 100 nM

CC(=O)N[C@@H]1[C@H](Oc2c3cc4cc2Oc2ccc(cc2Cl)[C@@H](O[C@@H]2O[C@@H](CO)[C@@H](O)[C@H](O)[C@@H]2NC(C)=O)[C@@H]2NC(=O)[C@H](NC(=O)[C@@H]4NC(=O)[C@H]4NC(=O)[C@@H](Cc5ccc(c(Cl)c5)O3)NC(=O)[C@H](N)c3ccc(O)c(c3)Oc3cc(O)cc4c3)c3ccc(O)c(c3)-c3c(O[C@H]4O[C@H](CO)[C@@H](O)[C@@H](O)[C@@H]4O)cc(O)cc3[C@@H](C(=O)O)NC2=O)O[C@@H](CO)[C@@H](O)[C@@H]1O
IC50 [10]: 1600 nM

CC(C)C[C@H](NC(=O)[C@H](CCC(=O)O)NC(=O)[C@H](CCC(=O)O)NC(=O)[C@H](CC(C)C)NC(=O)[C@H](CCCCN)NC(=O)[C@H](CCCCN)NC(=O)[C@H](CO)NC(=O)[C@H](CC(C)C)NC(=O)[C@H](CCC(=O)O)NC(=O)[C@H](CCC(=O)O)NC(=O)[C@H](CC(C)C)NC(=O)[C@H](CCCCN)NC(=O)[C@H](CCCCN)NC(=O)[C@H](CO)NC(=O)[C@H](CC(C)C)NC(=O)[C@H](CCC(=O)O)NC(=O)[C@H](CCC(=O)O)NC(=O)[C@H](CC(C)C)NC(=O)[C@H](CCCCN)NC(=O)[C@H](CCCCN)NC(=O)[C@H](CO)NC(=O)[C@H](CC(C)C)NC(=O)[C@H](CCC(=O)O)NC(=O)[C@H](CCC(=O)O)NC(=O)[C@H](CC(C)C)NC(=O)[C@H](CCCCN)NC(=O)[C@H](CCCCN)NC(=O)[C@H](CO)NC(=O)[C@H](CC(C)C)NC(=O)[C@H](CCC(=O)O)NC(=O)[C@H](CCC(=O)O)NC(=O)[C@@H](N)CC(C)C)C(=O)N[C@@H](CO)C(=O)N[C@@H](CCCCN)C(=O)N[C@@H](CCCCN)C(=O)NCCC(=O)N[C@@H](CCCCN)C(=O)O (H-LEELSKKLEELSKKLEELSKKLEELSKKLEELSKK[βAla]K-OH)
EC50 [9]: 240 nM

CC[C@H](C)[C@H](NC(=O)[C@H](Cc1ccc(O)cc1)NC(=O)[C@H](CO)NC(=O)[C@H](CCC(=O)O)NC(=O)[C@H](CC(N)=O)NC(=O)[C@H](CC(C)C)NC(=O)[C@H](C)NC(=O)[C@H](CCCCN)NC(=O)[C@@H](NC(=O)[C@@H](NC(=O)[C@H](CCC(N)=O)NC(=O)[C@H](CCC(N)=O)NC(=O)[C@H](CC(C)C)NC(=O)[C@H](CO)NC(=O)[C@H](CC(C)C)NC(=O)[C@H](CCSC)NC(=O)[C@H](CCC(=O)O)NC(=O)[C@H](Cc1ccc(O)cc1)NC(=O)[C@@H](NC(=O)[C@H](CC(C)C)NC(=O)[C@H](CC(=O)O)NC(=O)[C@H](CC(C)C)NC(=O)[C@H](CC(C)C)NC(=O)[C@@H](NC(=O)[C@@H](NC(=O)[C@H](CC(N)=O)NC(=O)[C@@H](NC(=O)[C@H](CCC(N)=O)NC(=O)[C@@H](NC(=O)[C@H](CC(C)C)NC(=O)[C@@H](N)CO)[C@@H](C)O)[C@@H](C)CC)[C@@H](C)O)[C@@H](C)O)[C@@H](C)O)C(C)C)C(C)C)C(=O)N[C@@H](CC(=O)O)C(=O)N[C@@H](CC(C)C)C(=O)N[C@@H](CCCCN)C(=O)N[C@@H](CCCCN)C(=O)N[C@@H](CCC(=O)O)C(=O)N[C@@H](CC(C)C)C(=O)O
IC50 [11]: 500 nM
IC50 [12]: 600 nM

O=C[C@H](C[C@@H]1CCNC1=O)NC(=O)[C@@H]1[C@H]2CCC[C@H]2CN1C(=O)COc1ccc(Cl)cc1Cl (single isomer, unassigned)
EC50 [6]: 1.1 nM
EC50 [7]: 31 nM
